Measurements from publication PMC12947280, “An Antifungal with a Novel Mechanism of Action Discovered via Resistance Gene-Guided Genome Mining” (ACS Central Science, 2026).
Read-outs that look alike come from different tables or passages of the source.

Assays:
[1] = system: A. fumigatus; experiment: Inhibition of A. fumigatus growth; assay type: cell-based
[2] = target: A. fumigatus ALS (Aspergillus fumigatus, UniProt Q4WXQ3); experiment: ALS biochemical assay (AfALS)
Method: ALS biochemical assay (AfALS)
Aspergillus fumigatus acetohydroxyacid synthase (AfILV2) lacking the N-terminal mitochondrial-targeting sequence (amino acids 112-752) was overproduced and isolated from E. coli as an N-terminally His6-tagged protein. Assays (50 µL final volume) contained 200 nM His6-AfALS, 8 mM pyruvate, 1 mM thiamine pyrophosphate, and 10 µM flavin adenine dinucleotide, 10 mM MgCl2, 1 mM DTT, 1% DMSO (± inhibitor) in 200 mM KH2PO4 buffer at pH
7.5. Following a 30 min pre-incubation of the enzyme and inhibitor in the reaction mixture at room temperature, reactions were initiated with the addition of pyruvate. AfALS assays were carried out at 30 °C for 120 min. The reaction was quenched with the addition of 5 µL of 10% H2SO4 (v/v in deionized water). Reactions were incubated at 60 °C at incubating microplate shaker for 15 min to convert the product of the ALS reaction, acetolactate, to acetoin.
Subsequently, the concentration of acetoin was determined by the addition of 7.5 µL 6 M NaOH, 25 µL 0.5% creatine (w/v in deionized water), and 25 µL 4% 1-naphthol (w/v in 2.5 M NaOH).
This mixture was incubated at 60 °C in an incubating microplate shaker for 15 min. 40 µL of this reaction mixture was transferred to a half area UV-star 96-well plate (Grenier) and the absorbance at 525 nm was measured on a Spark multimode plate reader (Tecan). The percent inhibition was calculated by the comparison of the signal to DMSO (0% inhibition) and no enzyme (100% inhibition) controls. IC50 values were calculated from the dose response curves using Prism 9 (four parameter, variable slope). […]
(amino acids 58-687) was codon optimized for expression in E. coli and synthesized by […]

[3] = target: C. albicans ALS (Candida albicans, UniProt A0A1D8PJF9); experiment: ALS biochemical assay (CaALS)
Sequence of C. albicans ALS (A0A1D8PJF9 entry or part of it): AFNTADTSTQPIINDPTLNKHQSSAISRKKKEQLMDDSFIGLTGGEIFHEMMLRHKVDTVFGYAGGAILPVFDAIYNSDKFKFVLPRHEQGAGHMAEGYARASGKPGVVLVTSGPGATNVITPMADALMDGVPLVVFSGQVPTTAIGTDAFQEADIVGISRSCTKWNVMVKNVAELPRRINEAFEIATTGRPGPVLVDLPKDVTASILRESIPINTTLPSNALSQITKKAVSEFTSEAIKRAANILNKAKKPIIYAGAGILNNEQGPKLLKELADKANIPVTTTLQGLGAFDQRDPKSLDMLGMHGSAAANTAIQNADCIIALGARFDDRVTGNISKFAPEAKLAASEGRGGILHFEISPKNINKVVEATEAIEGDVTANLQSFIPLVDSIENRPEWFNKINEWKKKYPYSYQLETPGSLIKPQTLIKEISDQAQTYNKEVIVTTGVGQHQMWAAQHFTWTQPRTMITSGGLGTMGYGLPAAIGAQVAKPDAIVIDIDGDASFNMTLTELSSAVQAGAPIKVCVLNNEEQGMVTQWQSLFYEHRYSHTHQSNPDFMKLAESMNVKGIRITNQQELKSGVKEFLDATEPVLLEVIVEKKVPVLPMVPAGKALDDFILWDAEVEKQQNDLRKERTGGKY

[4] = target: T1, S. cerevisiae ALS wild type (Saccharomyces cerevisiae, UniProt P07342); experiment: ALS biochemical assay (ScALS), wild type
T1 construct: made in house; host or cells: E. coli BL21 (DE3), pET28a-ScILV2
T1 sequence (P07342 58-687): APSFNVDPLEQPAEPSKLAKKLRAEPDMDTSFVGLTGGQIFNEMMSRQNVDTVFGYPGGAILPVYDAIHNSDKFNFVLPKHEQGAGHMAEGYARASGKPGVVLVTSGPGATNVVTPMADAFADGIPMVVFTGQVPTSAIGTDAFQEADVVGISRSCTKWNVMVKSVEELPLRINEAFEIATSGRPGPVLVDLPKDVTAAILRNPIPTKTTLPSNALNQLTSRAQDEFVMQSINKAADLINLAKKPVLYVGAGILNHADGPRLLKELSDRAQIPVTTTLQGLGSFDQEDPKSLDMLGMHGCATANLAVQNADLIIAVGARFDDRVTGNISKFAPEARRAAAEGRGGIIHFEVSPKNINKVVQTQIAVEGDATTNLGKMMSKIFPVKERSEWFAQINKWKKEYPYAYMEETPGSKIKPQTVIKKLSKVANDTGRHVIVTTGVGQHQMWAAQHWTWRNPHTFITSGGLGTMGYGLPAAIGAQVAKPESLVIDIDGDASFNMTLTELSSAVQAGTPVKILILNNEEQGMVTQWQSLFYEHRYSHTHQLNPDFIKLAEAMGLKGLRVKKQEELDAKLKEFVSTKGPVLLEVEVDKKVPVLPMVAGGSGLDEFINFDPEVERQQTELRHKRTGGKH
Method: (§1) ALS biochemical assay (ScALS)
(§2) Saccharomyces cerevisiae acetohydroxyacid synthase (ScALS) lacking the N-terminal […]
(§3) Escherichia coli as an N-terminally His6-tagged protein. Assays (50 µL final volume) contained […]
(§4) adenine dinucleotide, 10 mM MgCl2, 1 mM DTT, 1% DMSO (± inhibitor) in 500 mM K2HPO4 buffer at pH 7.5. Following a 30 min pre-incubation of the enzyme and inhibitor in the reaction mixture at room temperature, reactions were initiated with the addition of pyruvate. ScALS assays were carried out at 30 °C for 60 min. The reaction was quenched with the addition of 5 µL of 10% H2SO4 (v/v in deionized water). Reactions were incubated at 60 °C at 800 rpm in an […]
(§5) to acetoin. Subsequently, the concentration of acetoin was determined by the addition of 7.5 µL 6 M NaOH, 25 µL 0.5% creatine (w/v in deionized water), and 25 µL 4% 1-naphthol (w/v in 2.5 M NaOH). This mixture was incubated at 60 °C at 800 rpm in an incubating microplate shaker for […]
(§6) 40 µL of this reaction mixture was transferred to a half area UV-star 96-well plate (Grenier) and the absorbance at 525 nm was measured on a Spark multimode plate reader (Tecan). The percent inhibition was calculated by the comparison of the signal to DMSO (0% […]
(§7) IC50 values were calculated from the dose response curves using Prism 9 (four parameter, variable slope). […]
(§8) Expression and purification of ScALS
(§9) S. cerevisiae ILV2 (the gene or ScALS) lacking the N-terminal mitochondrial-localization tag

[5] = target: T2, S. cerevisiae ALS P192S (Saccharomyces cerevisiae, UniProt P07342, P192S); experiment: biochemical; assay type: biochemical
T2 construct: His6 (followed by a TEV protease site, pET28a) (N); made in house; host or cells: E. coli (inferred from the ScALS method)
T2 sequence (P07342 58-687 P192S): as the sequence (P07342 58-687) above, with P135S counted along it
Method: as §1, §2, §3, §4, §5, §6, §7, §8, §9

[6] = Aspergillus fumigatus; read-out: A. fumigatus growth inhibition EC50 (Figure 4A)
[7] = Aspergillus fumigatus; read-out: A. fumigatus growth inhibition IC50

Sequence of A. fumigatus ALS (Q4WXQ3 entry or part of it): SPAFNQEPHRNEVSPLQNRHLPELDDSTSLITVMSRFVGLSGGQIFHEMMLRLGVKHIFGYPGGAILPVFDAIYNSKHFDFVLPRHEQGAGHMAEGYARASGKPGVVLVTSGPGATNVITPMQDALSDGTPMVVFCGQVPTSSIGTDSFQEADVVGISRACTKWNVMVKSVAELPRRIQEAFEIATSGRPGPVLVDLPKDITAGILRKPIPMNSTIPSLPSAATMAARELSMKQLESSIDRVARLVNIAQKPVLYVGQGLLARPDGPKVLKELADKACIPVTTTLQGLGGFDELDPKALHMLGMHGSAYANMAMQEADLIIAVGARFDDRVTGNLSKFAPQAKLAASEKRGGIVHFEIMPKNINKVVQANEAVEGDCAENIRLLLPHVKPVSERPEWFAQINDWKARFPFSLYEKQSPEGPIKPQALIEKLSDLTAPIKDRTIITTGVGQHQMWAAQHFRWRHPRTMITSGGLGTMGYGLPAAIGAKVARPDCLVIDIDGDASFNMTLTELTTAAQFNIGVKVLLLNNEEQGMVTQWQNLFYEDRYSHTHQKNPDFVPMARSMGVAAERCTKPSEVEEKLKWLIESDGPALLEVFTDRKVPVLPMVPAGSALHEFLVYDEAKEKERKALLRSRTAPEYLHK

Compound | EC50 [1, 6] [nM] | IC50 [1, 7] [nM] | IC50 [2] [nM] | IC50 [3] [nM] | also measured
C[C@@H](c1ncncc1F)[C@](O)(Cn1cncn1)c1ccc(F)cc1F [Voriconazole, voriconazole] | 500 ± 200 | 500 | – | – | –
COC(=O)c1ccccc1CS(=O)(=O)NC(=O)Nc1nc(OC)cc(OC)n1 [compound 2, bensulfuron methyl] | 57000 ± 20000 | 200000 | 100 ± 20 | 30 ± 4 | –
COc1cnc(OC)n2nc(NS(=O)(=O)c3c(OCC(F)F)cccc3C(F)(F)F)nc12 [compound 3, penoxsulam] | 23000 ± 7000 | 25000 | 0.5 ± 0.2 | 3.4 ± 0.6 | IC50 [4]: 0.4 ± 0.2 nM; IC50 [5]: 150 ± 30 nM
COc1cc(OC)nc(Oc2cccc(Oc3nc(OC)cc(OC)n3)c2C(=O)O)n1 [compound 4, bispyribac, reference compound] | – | – | – | – | IC50 ([4]; recombinant ScALS, read-out: S. cerevisiae ALS IC50 Wild type): 600 ± 100 nM
CCOC(=O)c1ccccc1S(=O)(=O)NC(=O)Nc1nc(Cl)cc(OC)n1 [compound 5, chlormuron ethyl] | – | – | 11 ± 3 | – | IC50 ([3]; recombinant CaALS, read-out: ALS IC50 C. albicans): 27 ± 5 nM; EC50 ([1]; Aspergillus fumigatus, read-out: A. fumigatus growth inhibition EC50 (Figure 4A)): 80000 ± 30000 nM; IC50 ([1]; Aspergillus fumigatus, read-out: A. fumigatus growth inhibition IC50): 90000 nM
